Reference: ChEMBL document CHEMBL3885881, “DrugMatrix”

Species on record: Rattus norvegicus
Experiment: DrugMatrix - Regimen: Daily Repeat
Format: toxicity, organism-based, Sprague-Dawley
Design: regimen Daily Repeat, gender Male, age 6-8 weeks
Details: in vivo, po, route oral GAVAGE, vehicle .5 % CMC; for URIC ACID / ALANINE AMINOTRANSFERASE / ALBUMIN / ALKALINE PHOSPHATASE / ASPARTATE AMINOTRANSFERASE / BLOOD UREA NITROGEN / CARBON DIOXIDE / CHLORIDE / CHOLESTEROL / CREATINE PHOSPHOKINASE / CREATININE / GLUCOSE / LACTATE DEHYDROGENASE / LIPASE / PHOSPHORUS / POTASSIUM / SODIUM / TOTAL BILIRUBIN / TOTAL PROTEIN: tissue Plasma; for ABSOLUTE BASOPHIL / ABSOLUTE EOSINOPHIL / ABSOLUTE LYMPHOCYTE / ABSOLUTE MONOCYTE / ABSOLUTE SEGMENTED NEUTROPHIL / BASOPHIL / EOSINOPHIL / ERYTHROCYTE COUNT / HEMATOCRIT / HEMOGLOBIN / LEUKOCYTE COUNT / LYMPHOCYTE / MEAN CORPUSCULAR HEMOGLOBIN / MEAN CORPUSCULAR HEMOGLOBIN CONCENTRATION / MEAN CORPUSCULAR VOLUME / MONOCYTE / NEUTROPHIL / NUCLEATED RED BLOOD CELLS / PLATELET COUNT: tissue Blood
[1] = 10 mg/kg, 120 h, dose level Low, time 5 day
[2] = 400 mg/kg, 72 h, dose level High, time 3 day
[3] = 400 mg/kg, 120 h, dose level High, time 5 day

CC(C)(C#N)c1cc(Cn2cncn2)cc(C(C)(C)C#N)c1 [ANASTROZOLE]
URIC ACID (10 mg/kg, 72 h, dose level Low, time 3 day): 1.33 mg/dL | ABSOLUTE BASOPHIL [1]: 0 CELLS/uL | ABSOLUTE EOSINOPHIL [1]: 0 CELLS/uL | ABSOLUTE LYMPHOCYTE [1]: 12980 CELLS/uL | ABSOLUTE MONOCYTE [1]: 0 CELLS/uL | ABSOLUTE SEGMENTED NEUTROPHIL [1]: 1020 CELLS/uL | BASOPHIL [1]: 0% | EOSINOPHIL [1]: 0% | ERYTHROCYTE COUNT [1]: 5.49 x10E6/uL | HEMATOCRIT [1]: 34.93% | HEMOGLOBIN [1]: 13.93 G/DL | LEUKOCYTE COUNT [1]: 14 x10E3/uL | LYMPHOCYTE [1]: 92.67% | MEAN CORPUSCULAR HEMOGLOBIN [1]: 25.4 pg | MEAN CORPUSCULAR HEMOGLOBIN CONCENTRATION [1]: 39.87 G/DL | MEAN CORPUSCULAR VOLUME [1]: 63.57 fL | MONOCYTE [1]: 0% | NEUTROPHIL [1]: 7.33% | NUCLEATED RED BLOOD CELLS [1]: 0 /100WBC | PLATELET COUNT [1]: 1087.67 x10E3/uL | ALANINE AMINOTRANSFERASE [1]: 48 u/L | ALBUMIN [1]: 4.1 G/DL | ALKALINE PHOSPHATASE [1]: 364.67 u/L | ASPARTATE AMINOTRANSFERASE [1]: 77.33 u/L | BLOOD UREA NITROGEN [1]: 18.33 mg/dL | CARBON DIOXIDE [1]: 26 mmol/L | CHLORIDE [1]: 103 MEQ/L | CHOLESTEROL [1]: 60.67 mg/dL | CREATINE PHOSPHOKINASE [1]: 224.33 u/L | CREATININE [1]: 0.14 mg/dL | GLUCOSE [1]: 146 mg/dL | LACTATE DEHYDROGENASE [1]: 164 u/L | LIPASE [1]: 9.33 u/L | PHOSPHORUS [1]: 13.6 mg/dL | POTASSIUM [1]: 7.31 MEQ/L | SODIUM [1]: 142.23 MEQ/L | TOTAL BILIRUBIN [1]: 0.2 mg/dL | TOTAL PROTEIN [1]: 5.87 G/DL | URIC ACID [1]: 1.9 mg/dL | ABSOLUTE BASOPHIL [2]: 0 CELLS/uL | ABSOLUTE EOSINOPHIL [2]: 0 CELLS/uL | ABSOLUTE LYMPHOCYTE [2]: 16859 CELLS/uL | ABSOLUTE MONOCYTE [2]: 135.33 CELLS/uL | ABSOLUTE SEGMENTED NEUTROPHIL [2]: 1372.33 CELLS/uL | BASOPHIL [2]: 0% | EOSINOPHIL [2]: 0% | ERYTHROCYTE COUNT [2]: 5.62 x10E6/uL | HEMATOCRIT [2]: 34.7% | HEMOGLOBIN [2]: 13.6 G/DL | LEUKOCYTE COUNT [2]: 18.37 x10E3/uL | LYMPHOCYTE [2]: 91.67% | MEAN CORPUSCULAR HEMOGLOBIN [2]: 24.17 pg | MEAN CORPUSCULAR HEMOGLOBIN CONCENTRATION [2]: 39.17 G/DL | MEAN CORPUSCULAR VOLUME [2]: 61.7 fL | MONOCYTE [2]: 0.67% | NEUTROPHIL [2]: 7.67% | NUCLEATED RED BLOOD CELLS [2]: 0.33 /100WBC | PLATELET COUNT [2]: 1228.33 x10E3/uL | ALANINE AMINOTRANSFERASE [2]: 89 u/L | ALBUMIN [2]: 4.27 G/DL | ALKALINE PHOSPHATASE [2]: 433 u/L | ASPARTATE AMINOTRANSFERASE [2]: 126 u/L | BLOOD UREA NITROGEN [2]: 17.33 mg/dL | CARBON DIOXIDE [2]: 28.33 mmol/L | CHLORIDE [2]: 98.33 MEQ/L | CHOLESTEROL [2]: 69.33 mg/dL | CREATINE PHOSPHOKINASE [2]: 255 u/L | CREATININE [2]: 0.3 mg/dL | GLUCOSE [2]: 143 mg/dL | LACTATE DEHYDROGENASE [2]: 237 u/L | LIPASE [2]: 11.33 u/L | PHOSPHORUS [2]: 11.7 mg/dL | POTASSIUM [2]: 7.49 MEQ/L | SODIUM [2]: 141.93 MEQ/L | TOTAL BILIRUBIN [2]: 0.17 mg/dL | TOTAL PROTEIN [2]: 5.87 G/DL | URIC ACID [2]: 1.83 mg/dL | ABSOLUTE BASOPHIL [3]: 0 CELLS/uL | ABSOLUTE EOSINOPHIL [3]: 0 CELLS/uL | ABSOLUTE LYMPHOCYTE [3]: 11924.33 CELLS/uL | ABSOLUTE MONOCYTE [3]: 19.67 CELLS/uL | ABSOLUTE SEGMENTED NEUTROPHIL [3]: 1989.33 CELLS/uL | BASOPHIL [3]: 0% | EOSINOPHIL [3]: 0% | ERYTHROCYTE COUNT [3]: 5.98 x10E6/uL | HEMATOCRIT [3]: 35.47% | HEMOGLOBIN [3]: 14.6 G/DL | LEUKOCYTE COUNT [3]: 13.93 x10E3/uL | LYMPHOCYTE [3]: 82% | MEAN CORPUSCULAR HEMOGLOBIN [3]: 24.43 pg | MEAN CORPUSCULAR HEMOGLOBIN CONCENTRATION [3]: 41.17 G/DL | MEAN CORPUSCULAR VOLUME [3]: 59.37 fL | MONOCYTE [3]: 0.33% | NEUTROPHIL [3]: 17.67% | NUCLEATED RED BLOOD CELLS [3]: 0.67 /100WBC | PLATELET COUNT [3]: 1447 x10E3/uL | ALANINE AMINOTRANSFERASE [3]: 478.67 u/L | ALBUMIN [3]: 4.53 G/DL | ALKALINE PHOSPHATASE [3]: 622.67 u/L | ASPARTATE AMINOTRANSFERASE [3]: 1130.67 u/L | BLOOD UREA NITROGEN [3]: 22 mg/dL | CARBON DIOXIDE [3]: 21.33 mmol/L | CHLORIDE [3]: 99.33 MEQ/L | CHOLESTEROL [3]: 88.33 mg/dL | CREATINE PHOSPHOKINASE [3]: 445.67 u/L | CREATININE [3]: 0.46 mg/dL | GLUCOSE [3]: 115 mg/dL | LACTATE DEHYDROGENASE [3]: 826.67 u/L | LIPASE [3]: 14.33 u/L | PHOSPHORUS [3]: 11.97 mg/dL | POTASSIUM [3]: 6.47 MEQ/L | SODIUM [3]: 142.23 MEQ/L | TOTAL BILIRUBIN [3]: 0.17 mg/dL | URIC ACID [3]: 2.23 mg/dL
